According to PMC4459817, “Vasculotide reduces endothelial permeability and tumor cell extravasation in the absence of binding to or agonistic activation of Tie2” (EMBO Molecular Medicine, 2015):
Entries after “also recorded” stand apart in the source; their conditions may differ.

Columns and labels:
[1] = test system: LM2-4luc lung metastases in SCID mice; assay: experimental LM2-4luc lung metastasis model (IV); assay type: in vivo, human LM2-4luc cells in CB-17 SCID mice; details: for lung metastases by in vivo bioluminescent imaging: 24DPI, SU 60 mg/kg/day pretreatment, one-way ANOVA, Fig2B–D
Text: (C and G) Photographs of typical metastases in the lungs and caudal lymphatics, respectively. […] Geometric means ± 95%CI are depicted in (D and H); P values were derived by one-way ANOVA (D) and Kruskal–Wallis test (H). […] TEXT PRINTED IN THE PICTURE: (A) Vasculotide (VT): Hazard ratio = 0.13 (95% CI, 0.03 to 0.63) | (A) SU+VT: Hazard ratio = 0.19 (95% CI, 0.04 to 0.81) DOUBTS OF THE COPYIST ABOUT THIS PICTURE: Vasculotide (VT), Hazard ratio: small print; 0.13 could be 0.15 or 0.18, and the CI limits 0.03 and 0.63 are uncertain in the digits 3/5/6/8 / SU+VT, Hazard ratio: small print; 0.19 could be 0.18 or 0.16, and the CI limits 0.04 and 0.81 are uncertain in the digits / Panel A: each hazard ratio is printed under a pair of legend entries (Vehicle / Vasculotide (VT), and Sunitinib (SU) / SU+VT). Assigning it to the VT-treated arm of each pair is my assumption.
(§1) In vivo experiments were performed in strict accordance with protocols approved by the Sunnybrook Research Institute Animal Care Committee, accredited by the Canadian Council of Animal Care. All surgical, imaging, and euthanasia procedures were performed under inhaled isoflurane anesthesia. Experimental metastasis models involved injections of 10^6 tumor cells, suspended in 200 μl serum-free DMEM, into the mouse tail vein. LM2-4^luc implantations were performed on 6 to 8-week-old female CB-17 SCID mice (Charles River Canada). HT29^luc implantations were performed on 19- to 20-week-old male and 11- to 12-week-old female YFP-SCID mice (bred in-house). SN12^luc implantations were performed on 9-week-old male YFP-SCID mice. Spontaneous metastasis models involved orthotopic implantations of 2 × 10^6 LM2-4^luc cells/50 μl serum-free DMEM in the right inguinal mammary fat pads of 6-week-old female CB-17 SCID mice.
(§2) Sunitinib malate (SU), from Pfizer or LC Laboratories, and its vehicle were formulated as described before (Ebos et al, [2009]). SU was administered by oral gavage (PO), once daily, at a dose of 60 mg/kg mouse weight. Vasculotide (VT): VT synthesized at the Sunnybrook Research Institute (Toronto, ON, Canada) was used in experiments described in Fig2(A–D) and Supplementary Fig S5(A and B). VT synthesized by American Peptide (Sunnyvale, CA, USA) was used in experiments described in Fig5. VT synthesized by Bachem UK Ltd was used in experiments described in Figs1, 2(E–H), 3, 4, 6–9, Supplementary Figs S2, and S5(C and D). Lyophilized product was reconstituted in PBS to 500 μg/500 μl stock aliquots and stored at −80°C. As needed, stock aliquots were diluted with PBS to a 250 ng/50 μl working concentration and stored in 0.4–1 ml aliquots at −80°C. VT (at a standard dose of 250 ng/mouse) or its vehicle (PBS) was administered to mice by intraperitoneal (IP) injections every other day.
(§3) 5. Bioluminescence imaging (BI) of tumor burden
For in vivo BI: Mice were injected intraperitoneally with 150mg/kg luciferin (Promega) 10 minutes prior to and anesthetized with isofluorane just before luminescent pseudocolor imaging (uniform settings: CCD camera locked at -105 °C, exposure=60s, f/1, subject size=1.5cm, bin=8, FOV=23.2cm, full image correction) using the IVIS 200 Imaging System (Caliper/PerkinElmer). Using the Living Image software (v2.50.1, Xenogen), weekly images were analyzed under uniform color range on grayscale photographic overlay. Total fluxes (photons/sec) were quantified within consistent regions of interest and statistically compared ideally at a timepoint before any deaths have occurred. […]

[2] = test system: orthotopic LM2-4luc breast cancer xenografts; assay: orthotopic LM2-4luc xenografts, unresected: primary tumor and spontaneous metastasis; assay type: in vivo, human LM2-4luc cells in CB-17 SCID mice; details: for primary tumor growth: VT from 10DPI, SU 7 days from 17DPI, n = 8, volume or bioluminescence, Fig5A–C
Text: The first experiment involved VT and SU treatments in the presence of an unresected primary tumor (Fig5). At 10 days post-implantation (DPI), when primary tumors reached an average size of ∽175 mm^3, mice were randomized into groups and chronic VT therapy was initiated. At 17DPI, when tumors reached an average size (∽400 mm^3) where tumor debulking is typically required for long-term metastasis experiments, a 7-day anti-angiogenic SU treatment was initiated in lieu of surgical resection.
as §1, §2, §3
For in vivo BI: Mice were injected intraperitoneally with 150mg/kg luciferin (Promega) 10 minutes prior to and anesthetized with isofluorane just before luminescent pseudocolor imaging (uniform settings: CCD camera locked at -105 °C, exposure=60s, f/1, subject size=1.5cm, bin=8, FOV=23.2cm, full image correction) using the IVIS 200 Imaging System (Caliper/PerkinElmer). Using the Living Image software (v2.50.1, Xenogen), weekly images were analyzed under uniform color range on grayscale photographic overlay. Total fluxes (photons/sec) were quantified within consistent regions of interest and statistically compared ideally at a timepoint before any deaths have occurred.
For ex vivo BI: Mice were sacrificed at 7 mins after luciferin injections, then organs of interest were dissected and individually placed within 24-well plates for imaging at 10 min post-luciferin injection.
6. Immunohistochemical (IHC) analysis of lung metastases
Surgically dissected lungs were fixed in 4% paraformaldehyde (PFA) overnight and stored in 70% ethanol. Three paraffin-embedded cross-sections per lung, 5-μm thick, 60 μ m apart, were subjected to IHC staining using a serum-free protein block (Dako X0909), an anti-human vimentin antibody (clone V9, Invitrogen 18-0052; 1:100 in Dako S3022 diluent), the universal ‘LSAB+, HRP’ detection kit (Dako K0690), the DAB+ chromogen-substrate system (Dako K3467) and hematoxylin counterstain.
Quantification procedure involved visual survey of entire tissue sections and tallying of DAB-stained […]

[3] = 39DPI, SU 1wk with or without VT, Fig5F

Row | Compound | lung metastases by in vivo bioluminescent imaging ([1]; VT 250 ng/2d, listed as SU) | incidence of lung metastases (ex vivo bioluminescent imaging) [2, 3] | incidence of lymph node metastases (ex vivo bioluminescent imaging) [2, 3] | primary tumor burden by volume ([2]; SU 7-day, one-way ANOVA, Fig5B) | primary tumor burden by bioluminescent activity ([2]; SU 7-day, one-way ANOVA, Fig5C) | primary tumor growth [2] | lung metastases by in vivo bioluminescent imaging ([1]; VT 250 ng/2d, listed as VT) | confirmatory repeats: VT trends on lung metastases and survival ([1]; Supplementary Fig S5) | survival ([1]; VT 250 ng/2d, with or without SU 60 mg/kg/day pretreatment, n = 5–6, Fig2A, listed as VT) | extension of median survival ([1]; VT 250 ng/2d IP monotherapy, n = 5–6, Fig2A) [%] | incidence of lymph node metastases (ex vivo bioluminescent imaging) ([2]; 32DPI, vehicle 2/8, Fig5F) | incidence of lung metastases (ex vivo bioluminescent imaging) ([2]; 32DPI, vehicle 6/8, Fig5F) | mean thickness of the viable peripheral regions of primary tumors (H&E) ([2]; 22 days of VT treatment, Fig5D) | mean thickness of the CAIX+ hypoxic edge of primary tumors ([2]; 22 days of VT treatment, Fig5E) | lung metastatic nodule size distribution (human vimentin IHC) ([2]; VT monotherapy, P = 0.05–0.09, Fig5G) | anti-metastatic benefit of concurrent VT treatment by regional IHC analysis ([2]; VT with SU, Fig5G) | metastatic involvement in the lungs (EVBI) ([2]; VT-treated groups vs vehicle or SU monotherapy, Fig5F)
1 | CCN(CC)CCNC(=O)c1c(C)[nH]c(/C=C2\C(=O)Nc3ccc(F)cc32)c1C [sunitinib, reference compound] | promoted lung metastases; also recorded: preferentially accelerated experimental lung metastasis, but not lymphatic metastasis | 4/8 | 4/8 | significantly lowered primary tumor burden | significantly lowered primary tumor burden | effectively stabilized primary tumor growth | – | – | – | – | – | – | – | – | – | – | –
2 | CHHHRHSF [Vasculotide, 4-armed maleimide-functionalized polyethylene glycol (PEG) backbone to link together four cysteine-capped T7 peptides, that is, CHHHRHSF] | – | – | – | – | – | did not alter the growth kinetics of primary tumors | trend of reduced lung metastases; also recorded: effectively suppressing SU-induced promotion of lung metastases, as seen by IVBI (P < 0.05 | The same trends were reproduced | significant survival benefit (P = 0.01); also recorded: prolonged median survival | ~20 | 1/8 | 2/8 | did not alter the mean thickness of the viable peripheral regions | did not alter the mean thickness of the CAIX^+ hypoxic edge | delayed the seeding or progression of lung micrometastases | not detectable by regional IHC analysis | trends of reduced incidences of metastatic involvement in the lungs, but no change in the lymph nodes
